In US20100111888A1, “Organic Compounds and Compositions Having the Ability to Modulate Fragrance Compositions” (GIVAUDAN SA, priority 2007, published 2010):

Key:
Type in all cases: biochemical
CYP2A13 = biological target: T1, CYP2A13 (Homo sapiens, UniProt Q16696); assay: Evaluation of test compounds as inhibitors of CYP2A13 (coumarin to Umbelliferone, fluorescence); settings: substrate coumarin 0.006 mM; microsomes with 7 pmoles CYP2A13; 60 min at 37° C.; read-out: CYP2A13 inhibitor activity IC50
T1 construct: made in house; host or cells: Sf9 insect cells, recombinant baculovirus
T1 sequence (Q16696 1-494): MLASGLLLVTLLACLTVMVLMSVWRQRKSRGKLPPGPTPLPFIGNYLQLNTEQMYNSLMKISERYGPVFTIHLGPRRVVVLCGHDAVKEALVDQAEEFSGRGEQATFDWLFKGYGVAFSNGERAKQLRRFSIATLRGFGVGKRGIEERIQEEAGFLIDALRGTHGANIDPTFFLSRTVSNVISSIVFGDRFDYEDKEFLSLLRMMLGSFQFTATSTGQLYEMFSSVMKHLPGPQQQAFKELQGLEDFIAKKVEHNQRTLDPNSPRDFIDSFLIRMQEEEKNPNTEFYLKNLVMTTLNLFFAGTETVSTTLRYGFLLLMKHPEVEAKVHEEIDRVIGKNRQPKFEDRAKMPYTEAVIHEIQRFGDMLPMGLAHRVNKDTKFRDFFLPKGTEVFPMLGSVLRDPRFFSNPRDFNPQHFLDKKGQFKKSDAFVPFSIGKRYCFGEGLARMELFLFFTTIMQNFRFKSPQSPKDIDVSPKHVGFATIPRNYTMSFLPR
Excerpt: P450 reductase is commercially available (BD Biosciences Gentest, USA).
Microsomes were used which contained 7 pmoles CYP2A13.

CYP2A6 = biological target: T2, CYP2A6 (Homo sapiens, UniProt P11509); assay: Evaluation of test compounds as inhibitors of CYP2A6 (coumarin to Umbelliferone, fluorescence); settings: substrate coumarin 0.003 mM; microsomes with 2 pmoles CYP2A6; 60 min at 37° C.; read-out: CYP2A6 inhibitor activity IC50
T2 construct: purchased BD Biosciences Gentest, USA
T2 sequence (P11509 1-494): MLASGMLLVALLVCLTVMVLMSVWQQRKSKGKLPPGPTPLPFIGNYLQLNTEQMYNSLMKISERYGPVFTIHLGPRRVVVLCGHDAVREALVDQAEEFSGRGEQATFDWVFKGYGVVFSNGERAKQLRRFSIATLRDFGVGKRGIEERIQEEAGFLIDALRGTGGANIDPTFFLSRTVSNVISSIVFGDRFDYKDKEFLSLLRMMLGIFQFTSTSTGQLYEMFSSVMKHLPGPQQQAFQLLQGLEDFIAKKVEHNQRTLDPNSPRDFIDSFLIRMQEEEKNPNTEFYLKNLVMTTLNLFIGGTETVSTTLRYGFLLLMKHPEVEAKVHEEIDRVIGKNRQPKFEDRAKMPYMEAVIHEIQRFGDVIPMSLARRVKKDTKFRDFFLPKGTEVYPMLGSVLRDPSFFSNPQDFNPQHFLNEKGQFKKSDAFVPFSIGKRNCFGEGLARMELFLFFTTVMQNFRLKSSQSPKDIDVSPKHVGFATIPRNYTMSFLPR
Experimental: Test compounds that inhibit the activity of CYP2A6 are identified by using the same principle as described in Example 1, first paragraph.
A test compound (details see Table 2) was incubated with CYP2A6 in the presence of a cytochrome P450 reductase. CYP2A6 and P450 reductase were employed in form of microsomes (BD Biosciences Gentest, USA). Microsomes were used which contained 2 pmoles CYP2A6 and an amount of NADPH-P450 reductase corresponding to cytochrome c reductase activity of 87 nmole/(min×mg protein). […] The concentration of the standard substrate coumarin was 0.003 mM.
The samples were analysed spectrofluorometrically according to the procedure described in Example 1.

CYP2B6 = biological target: T3, CYP2B6 (Homo sapiens, UniProt P20813); assay: Inhibition of human CYP2B6 (7-ethoxy-4-trifluoromethyl-coumarin, fluorescence); settings: substrate 7-ethoxy-4-trifluoromethyl-coumarin 6 μM; microsomes with 1.5 pmoles CYP2B6; 40 min at 37° C.; read-out: CYP2B6 inhibitor activity IC50
T3 construct: made in house; host or cells: Sf9 insect cells, recombinant baculoviruses
T3 sequence (P20813 1-491): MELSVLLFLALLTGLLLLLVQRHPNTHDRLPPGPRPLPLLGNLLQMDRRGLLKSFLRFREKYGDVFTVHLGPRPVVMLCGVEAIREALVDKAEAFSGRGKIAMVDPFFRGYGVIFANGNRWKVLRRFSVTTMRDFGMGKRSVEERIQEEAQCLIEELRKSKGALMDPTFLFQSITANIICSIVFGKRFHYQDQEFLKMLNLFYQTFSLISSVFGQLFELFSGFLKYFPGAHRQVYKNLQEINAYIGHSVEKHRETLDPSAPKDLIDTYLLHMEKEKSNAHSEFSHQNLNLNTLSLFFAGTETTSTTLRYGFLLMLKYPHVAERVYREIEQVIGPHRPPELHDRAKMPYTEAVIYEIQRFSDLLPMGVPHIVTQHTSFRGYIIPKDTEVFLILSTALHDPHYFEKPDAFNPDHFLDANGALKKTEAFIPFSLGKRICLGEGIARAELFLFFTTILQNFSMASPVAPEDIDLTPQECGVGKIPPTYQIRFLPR
Experimental: Test compounds that inhibit the activity of CYP2B6 are identified by using the same principle as described in Example 1, first paragraph.
A test compound (details see Table 4) was incubated with CYP2B6 in the presence of a cytochrome P450 reductase. CYP2B6 and P450 reductase are produced using recombinant baculoviruses and co-expressing the two proteins in Sf9 insect cells as described in Example 1. Alternatively, microsomes containing CYP2B6 and the reductase are commercially available (BD Biosciences Gentest, USA). Microsomes were used which contained 1.5 pmoles CYP2B6. Potassium phosphate buffer final concentration was 100 mM, (1M stock, pH 7.4). […] The concentration of the standard substrate 7-ethoxy-4-trifluoromethyl-coumarin was 6 μM. […] The samples were incubated for 40 min at 37° C.

IC50 (CYP2A13) | IC50 (CYP2A6) | IC50 (CYP2B6) | SMILES
0.6 µM | 141 µM |  | CCCCC/C(=C\c1ccccc1)C(C)=O [Compound ID 5, (E)-3-benzylideneoctan-2-one]
4.8 µM | 148 µM |  | CCCCCC(Cc1ccccc1)C(C)=O (stereo not shown) [Compound ID 4, 3-phenylmethyloctan-2-one]
1.1 µM | 8 µM | 3.5 µM | CCCCCC/C(=C\C1CC1)C(C)=O [Compound ID 2, (E)-3-(cyclopropylmethylene)nonan-2-one]
0.3 µM | 7 µM | 4 µM | CCCCC/C(=C\C1CC1)C(C)=O [Compound ID 3, (E)-3-(cyclopropylmethylene)octan-2-one]
0.5 µM | 3 µM | 3.9 µM | CCCC/C(=C\C1CC1)C(C)=O [Compound ID 1, (E)-3-(cyclopropylmethylene)heptan-2-one]
